Here are results for two compounds from patent US20250127774A1, “COMPOUNDS FOR LABELLING NUCLEIC ACID AND USES THEREOF” (THE ROYAL INSTITUTION FOR THE ADVANCEMENT OF …, priority 2022, published 2025).

In general, IC50 refers to the concentration at which inhibition is half-maximal.

In test [1] the test system is VdU-labeled DNA in living Hela cells. The test is described as follows: Live-cell metabolic labeling, PINK staining kinetics. Type of test: cell-based. The procedure: To evaluate the ability of PINK to enter live cells and undergo fluorogenic reactions with vinyl groups in native chromatin, Hela cells were grown in rich media containing 10 μM VdU for 15 h and subsequently stained with 1-2 μM PINK for 4 h. Total cellular DNA was counterstained with Hoechst […] (5 μM; 405 nm laser; emission 410-480 nm) for 10 minutes prior to imaging PINK (514 nm laser; emission 570-700 nm). Control (ctrl) samples were treated with PINK but not VdU. All cells were treated and maintained in DMEM media containing 10% FBS and grown in 5% CO2 at 37° C. Live cell images were acquired using a confocal microscope.
The intracellular reaction kinetics of PINK staining was next investigated. Cells were seeded at a concentration of 2.5×10^4 cells/mL, allowed to settle overnight, and incubated with 100 μM VdU for 24 h. Cells were stained with 10 μM PINK between 10 min and 25 h, co-stained with Hoechst 33342 (5 μg/mL), and images were acquired on a confocal microscope. Samples were optimized for an ideal signal to noise ratio after staining for 1 h, illustrating a sufficiently bright signal at this stage. Ctrl samples were exposed to PINK for 25 h, thus explaining the relatively high background. […] Labeling was efficient in multiple cell lines. U2OS cells were seeded in μ-slide 8-well (Ibidi®) (3.0×10^4 cells in 200 μL; 1.5×10^5 cells/mL) in DMEM and given 20 h to settle. Cells were aspirated and VdU (0-100 μM in 200 μL DMEM) was added. Cells were incubated for 18 h, aspirated, and PINK (5 μM in 200 μL DMEM, 0.05% DMSO) was added. Cells were incubated for 5 h, aspirated, and Hoechst 33342 (2 μg/mL in 200 μL DMEM) was added for 15 min. Cells were aspirated and the media was exchanged for 200 μL DMEM (-Phenol Red). Images were acquired on a confocal microscope (FIG. 11). […] Cells (5.0×10^4 cells/mL) were seeded and allowed to settle overnight. Cells were incubated with 20 μM VdU for 16 h and stained with 2 μM PINK for 5 h, Cells were aspirated and fresh media (w/o Phenol Red) was added. Control Samples received identical treatment, but were not exposed to VdU. […]

Test [2] deals with MOLM-13 cells. The test is described as follows: Resazurin combination toxicity assay. It is filed as cell-based, human. The note with it: Homo sapiens, MOLM-13, MOLM-13; variable VdU/VdA alone or with 1 μM PINK added 24 h post nucleoside addition; read-out: IC50 value (48 h) for sequential addition. The procedure:
From the single toxicity experiment, it was determined that the optimal subtoxic concentration of PINK to be used for the combination toxicity assays would be 1 μM. To test how effective the vinyl-nucleosides (VdU/VdA) in combination with PINK are at killing the cells compared to the vinyl-nucleosides alone, another resazurin reduction assay was carried out.
Resazurin Combination toxicity assays. MV4-11, MOLM-13 and Jurkat cells were seeded in 96-well plates at a density of 20 000 cells/well, 25 000 cells/well and 30 000 cells/well, respectively, in triplicates. For the sequential addition, the cells were first treated with the nucleosides (VdU/VdA) diluted in fresh media in 1:4 serial dilutions (˜0.01% DMSO) at concentrations of 500-0 μM, and incubated overnight. 24h post nucleoside addition, the cells were treated with 1 μM PINK diluted in fresh media (˜1% DMSO), and incubated for 24-72h. The cells were treated with resazurin, incubated and measured, as described above. For the simultaneous addition, the cells were treated with nucleosides and PINK on the same day at the same concentrations as describes above, and incubated for 24-72h.
Background: The colour change of resazurin is a common sign of viable cells or microbes.

The subject of test [3] is Jurkat cells. The test is described as follows: Cell counting assay (Trypan Blue). It is filed as cell-based, human. The note with it: 10 μM nucleoside, 1 μM PINK. As to the method: (§1) To confirm the cytotoxicity results obtained from the resazurin assays, a cell counting assay was conducted using Trypan Blue. It is an azo dye allows to discriminate between viable cells and dead cells, since dead cells will take in the dye, while viable cells will remain white. 28 From the resazurin assays, and after some optimization based on cell sensitivity to the vinyl-nucleosides, it was determined that […] and 5 μM of vinyl-nucleosides alone and in combination with 1 μM of PINK were two interesting concentrations to explore in Jurkat, MV4-11, and MOLM-13 cells. Cells were incubated with 5 μM or 10 μM of each nucleoside overnight (Day 0), and 1 μM of PINK was added for the combinations and PINK alone 24h post nucleoside incubation (Day 1). The cells were counted every 24h.
(§2) Cell Counting Assay. Jurkat, MV4-11 and MOLM-13 cells were seeded in 12-well plates at a density of 500 000 cells/mL, 175 000 cells/mL and 375 000 cells/mL, respectively, in duplicates. The cells were incubated overnight in fresh media containing 10 μM (Jurkat) or 5 μM (MV4-11 and MOLM-13) of each nucleoside (˜0.01% DMSO). 24h post nucleoside addition, 1 μM of PINK (˜0.01% DMSO) were added to the respective wells and incubated for 24 h. The cells were counted using a cell counter (BIO RAD TC20) to determine the percentage of viable cells and the cell concentration. The cells were counted every 24h using Trypan Blue in a 1:1 ratio.

Test [4] concerns MV4-11 cells. The test is described as follows: Cell counting assay (Trypan Blue). Type of test: cell-based, human. The conditions noted are these: MV4-11, 5 μM nucleoside, 1 μM PINK. The procedure:
as §1, §2

The test system of test [5] is MOLM-13 cells. As to the kind of experiment: Cell counting assay (Trypan Blue). It is filed as cell-based, human. The conditions noted are these: MOLM-13, 5 μM nucleoside, 1 μM PINK. The procedure:
as §1, §2

The mark [6] stands for this setting: 100 μM VdU 24 h, then 10 μM PINK.

As to `Cc1nnc(-c2ccc3cc4ccc(N(C)C)cc4nc3c2)nn1` [PINK], in test [1] (20 μM VdU 16 h, 2 μM PINK 5 h, fresh media, t=0, 24 h), the “retention of fluorescent signal in living cells” value is given as “retained in living cells 24 h after being removed from the media”. Moreover, in test [1] (setting [6]), the “incubation time after which a clear signal above background is observed” value was determined as 1 h and the “staining duration ideal to achieve complete labeling” value worked out at 5 h.
In the case of `C=Cc1cn([C@H]2C[C@H](O)[C@@H](CO)O2)c(=O)[nH]c1=O` [VdU, 5-vinyl-2′-deoxyuridine], in test [2], the IC50 was determined as 18 µM. The results for the “cell concentration (cell growth)” value in test [3], in test [4] and in test [5] were “more impact on cell growth than expected from the resazurin assay”, “significantly inhibited cell growth” and “seem to inhibit cell growth”, respectively.
